The text below walks through data of patent publication US11091447B2, “UBE2K modulators and methods for their use” (Berg LLC, priority 2020, dated 2021).

In one assay the test system is MIA PaCa-2 cells. Briefly: Cellular viability assay (Cell Titer Fluor). It counts as cell-based. Particulars: Homo sapiens, 72 hours incubation. How it is done:
Cell viability were performed using the Cell Titer Fluor™ Assays (Promega G6080). MIA PaCa-2 cells are grown in DMEM media with 10% FBS, 1% Pen/Strep/Amphotericin B. Cells are trypsinized and counted using the Nexcelom cellometer. 5,000 cells/100 μl are plated per well in Greiner black/clear 96-well plates. Cells should be within 10 passages of stock vial for use in workflow. Three distinct lineages of these cells are cultured in parallel for multiple passages and 5 full plates of each lineage are seeded for one run. Small molecule compounds are provided as 100 mM stock solutions in DMSO. Dilution series plates are prepared using 1:3 dilution to achieve a 7 point concentration on a half log scale. After addition of compounds, cells are incubated 37° C., 5% CO2 for 72 hours.
For each test compound condition, triplicate technical replicates are used. For each reference compound, duplicate technical replicates are used. At the end of the 72-hour incubation, spent media is discarded. Then, 100 μl of GF-AFC diluted in DMEM (serum and phenol red-free) is added at 1:2000 concentration (5 μl/10 ml). Cells are incubated with reaction buffer for 1 h at 37° C. Fluorescence is then read on the plate reader with excitation wavelength of 390 nm and emission wavelength of 505 nm. All raw data are analyzed on Microsoft Excel 2010 and normalized to the DMSO vehicle control. Relative results are copied into GraphPad Prism for non-linear regression analysis and determination of IC50 and other dose curve parameters (min, max, Hill slope, etc.) using the log (inhibitor) vs. response equation. Values are as follows: A represents an IC50 of <[…], B represents an IC50 of 1 mM to 10 mM, C represents an IC50 of >10 mM.

A further assay has as its system K-562 tumor grafts. Briefly: Tumor growth inhibition in K-562 murine xenograft model. The assay is classed as in vivo, Mouse (Mus musculus). Particulars: bid., p.o., K-562 xenograft, SCID Bg mice. As to the method: K-562 cancer cell line sourced from American Type Culture Collection (ATCC), USA. Cells were grown in IMDM medium (Sigma, Cat #30-2005) supplemented with 10% FBS (Invitrogen, Cat #10438-026), and 1% penicillin streptomycin (Invitrogen, Cat #15140-122). To establish xenograft, the cells were harvested by trypsinization when they reach around 70 to 80% confluence and 5 million K-562 cells were suspended in 200 μL of serum-free medium and mixed at 1:1 ratio with matrigel before implanting subcutaneously into the dorsal right flank of SCID Bg mice using a 1 mL BD syringe attached to a 24-gauge needle.
K-562 tumor grafts were measured after 10 days of cell inoculation once they became palpable. When the average tumor volume reached around 85 mm^3, animals were dosed after randomization into different treatment groups keeping tumor volume and number of animals in such a way so that the average tumor volume of each group remained same across the groups.
Compounds were formulated in 0.5% CMC+0.1% Tween 80 and given for 12 consecutive days BID with 8 hour gaps.

In assay [1] the test system is MV.4.11 cell (B myelomonocytic leukemia) line derived xenograft. The assay can be described thus: Anti-tumor efficacy in MV.4.11 cell line derived xenograft model. It counts as in vivo. Particulars: MV.4.11 xenograft, nude mice. As to the method:
Nude mice were implanted with 5×10^6 cells MV.4.11 cells subcutaneously in the right flank region. Mice were randomized into 3 groups (8 mice each) on day 12 post cells implantation. Vehicle control was administered with formulation of test compound and treatment group was administered with compound 131 at doses 75 and 150 mg/kg orally as a suspension in 0.1% Tween-80+0.5% CMC (carboxymethyl cellulose) twice daily (b.i.d) for 24 days. Tumor measurements and body weight were recorded thrice weekly during the study period till study completion (day 24).

Compound `COc1ccc(F)cc1-c1nc(CNC(=O)c2cc(F)ccc2OC(F)(F)F)n[nH]1` [Compound 133] showed an IC50 in the assay on MIA PaCa-2 cells (MIA PaCa-2, 72 h) of under 1000 nM. Also, in the assay with K-562 tumor grafts (25 mg/kg/dose), the “% Tumor Growth Inhibition (TGI) on day 3” value is 43%, the “% Tumor Growth Inhibition (TGI) on day 5” value amounted to 37%, the “% Tumor Growth Inhibition (TGI) on day 8” value is 48% and the “% Tumor Growth Inhibition (TGI) on day 10” value worked out at 45%. Also, in the assay with K-562 tumor grafts (25 mg/kg/dose), the “% Tumor Growth Inhibition (TGI) on day 12” value amounted to 43%. For the same compound, in the assay on K-562 tumor grafts (75 mg/kg/dose), the “% Tumor Growth Inhibition (TGI) on day 3” value came out at 47%, the “% Tumor Growth Inhibition (TGI) on day 5” value is 56%, the “% Tumor Growth Inhibition (TGI) on day 8” value is recorded as 61% and the “% Tumor Growth Inhibition (TGI) on day 10” value turned out to be 60%. Further, the “% Tumor Growth Inhibition (TGI) on day 12” value in the assay on K-562 tumor grafts (75 mg/kg/dose) stood at 64%.
In the assay with MIA PaCa-2 cells (MIA PaCa-2, 72 h), `COc1ccccc1-c1nc(CNC(=O)c2ccccc2OC(F)F)n[nH]1` [Compound 126, 2-(difluoromethoxy)-N-((5-(2-methoxyphenyl)-1H-1,2,4-triazol-3-yl)methyl) benzamide] registered an IC50 of under 1000 nM. Moreover, in the assay with K-562 tumor grafts (75 mg/kg/dose), the “% Tumor Growth Inhibition (TGI) on day 3” value is on record as 41%, the “% Tumor Growth Inhibition (TGI) on day 5” value is on record as 32%, the “% Tumor Growth Inhibition (TGI) on day 8” value turned out to be 27% and the “% Tumor Growth Inhibition (TGI) on day 10” value is recorded as 27%. In addition, the “% Tumor Growth Inhibition (TGI) on day 12” value in the assay on K-562 tumor grafts (75 mg/kg/dose) was 36%. Further, in the assay on K-562 tumor grafts (200 mg/kg/dose), the “% Tumor Growth Inhibition (TGI) on day 3” value is recorded as 55%, the “% Tumor Growth Inhibition (TGI) on day 5” value stood at 51%, the “% Tumor Growth Inhibition (TGI) on day 8” value came out at 51% and the “% Tumor Growth Inhibition (TGI) on day 10” value is 43%. Besides, the “% Tumor Growth Inhibition (TGI) on day 12” value with K-562 tumor grafts (200 mg/kg/dose) was found to be 44%.
Turning to `COc1ccc(F)cc1-c1nc(CNC(=O)c2cccc3c2OC(F)(F)O3)n[nH]1` [Compound 131], the results for the tumor growth inhibition in assay [1] (75 mg/kg orally twice daily (b.i.d) for 24 days) and in assay [1] (150 mg/kg orally twice daily (b.i.d) for 24 days) were 73.6% and 86.3%, respectively. In the assay on MIA PaCa-2 cells (MIA PaCa-2, 72 h), this compound gave an IC50 of under 1000 nM.
`O=C(NCc1n[nH]c(-c2cccs2)n1)c1ccccc1N1CC(F)(F)C1` [Compound 74] displayed an IC50 in the assay with MIA PaCa-2 cells (MIA PaCa-2, 72 h) of over 10000 nM.
The same measure, in the same setting: in the case of `O=C(NCc1cc(-c2cccs2)[nH]n1)c1cccc(C(F)(F)F)c1N1CCCCC1` [Compound 79] it was 1000 to 10000 nM.
On the same count and under the same terms, the figure for `O=C(NCc1n[nH]c(-c2cccs2)n1)c1ccccc1OC(F)F` [Compound 15] is over 10000 nM.
Same read-out and setting: in the case of `COc1ccccc1-c1nc(S(=O)(=O)NC(=O)c2ccccc2OC(F)F)n[nH]1` [Compound 124, 2-(difluoromethoxy)-N-((5-(2-methoxyphenyl)-1H-1,2,4-triazol-3-yl)sulfonyl) benzamide] it was 1000 to 10000 nM; in that of `COc1cccc(-c2cc(CNC(=O)c3ccccc3OC(F)(F)F)n[nH]2)c1OC` [Compound 114], over 10000 nM.
With `COc1ccccc1-c1nc(CNC(=O)c2cc(F)ccc2OC(F)(F)F)n[nH]1` [Compound 134], the IC50 with MIA PaCa-2 cells (MIA PaCa-2, 72 h) was under 1000 nM.
The same measure, in the same setting: in the case of `COc1ccc(F)cc1-c1nc(CNC(=O)c2ccc3c(c2)OC(F)(F)O3)n[nH]1` [Compound 119] it was 1000 to 10000 nM.
In the case of `O=C(NCc1cc(-c2cccnc2O)[nH]n1)c1ccccc1OC(F)(F)F` [Compound 28], in the assay on MIA PaCa-2 cells (MIA PaCa-2, 72 h), the IC50 is over 10000 nM.
For `O=C(NCc1n[nH]c(-c2ccccc2O)n1)c1ccccc1OC(F)F` [Compound 60, 2-(Difluoromethoxy)-N-((5-(2-hydroxyphenyl)-1H-1,2,4-triazol-3-yl)methyl) benzamide], the IC50 with MIA PaCa-2 cells (MIA PaCa-2, 72 h) was under 1000 nM.
On the same count and under the same terms, in the case of `CC(C)Oc1ccc(F)cc1-c1cc(CNC(=O)c2cc(F)ccc2N2CCCC2)n[nH]1` [Compound 98] it was under 1000 nM.
On the same count and under the same terms, in the case of `CC(C)Oc1ccc(F)cc1-c1cc(CNC(=O)c2cc(F)ccc2N2CCCCC2)n[nH]1` [Compound 93] it was under 1000 nM; in that of `O=C(NCc1cc(-c2cccs2)[nH]n1)c1ccccc1N1CCC(F)(F)CC1` [Compound 65], under 1000 nM; in that of `O=C(NCc1cc(-c2cc(O)ccc2O)[nH]n1)c1ccccc1OC(F)(F)F` [Compound 40, N-((5-(2,5-dihydroxyphenyl)-1H-pyrazol-3-yl)methyl)-2-(trifluoromethoxy) benzamide], over 10000 nM.
On the same count and under the same terms, in the case of `N#Cc1ccc(N2CCCC2)c(C(=O)NCc2cc(-c3cccs3)[nH]n2)c1` [Compound 84] it was 1000 to 10000 nM; in that of `COc1ccccc1-c1nc(CNC(=O)c2cccnc2OC(F)F)n[nH]1` [Compound 144, 2-(difluoromethoxy)-N-((5-(2-methoxyphenyl)-1H-1,2,4-triazol-3-yl)methyl) nicotinamide], under 1000 nM.
Turning to `COc1ccc(F)cc1-c1nc(CNC(=O)c2ccccc2OC(F)(F)F)n[nH]1` [Compound 127, N-((5-(5-fluoro-2-methoxyphenyl)-1H-1,2,4-triazol-3-yl)methyl)-2-(trifluoromethoxy)benzamide], the IC50 in the assay with MIA PaCa-2 cells is under 1000 nM.
The compound `COc1ccccc1-c1cc(CNC(=O)c2cc(F)ccc2N2CCCCC2)n[nH]1` [Compound 100] came in with an IC50 in the assay on MIA PaCa-2 cells (MIA PaCa-2, 72 h) of under 1000 nM.
Still for that read-out and setting: in the case of `O=C(NCc1cc(-c2ccsc2Cl)[nH]n1)c1ccccc1OC(F)(F)F` [Compound 22] it was over 10000 nM; in that of `COc1ccc(F)cc1-c1nc(CNC(=O)c2cccnc2OC(F)F)n[nH]1` [Compound 143, 2-(difluoromethoxy)-N-((5-(5-fluoro-2-methoxyphenyl)-1H-1,2,4-triazol-3-yl)methyl) nicotinamide], under 1000 nM.
Still for that read-out and setting: in the case of `COc1ccccc1-c1nc(CNC(=O)c2cc(F)ccc2OC(F)F)n[nH]1` [Compound 138, 2-(difluoromethoxy)-5-fluoro-N-((5-(2-methoxyphenyl)-1H-1,2,4-triazol-3-yl)methyl) benzamide] it was under 1000 nM; in that of `O=C(NCc1n[nH]c(-c2cccs2)n1)c1ccccc1N1CCC(F)(F)C1` [Compound 75], under 1000 nM.
Still for that read-out and setting: in the case of `COc1ccc(O)cc1-c1nc(CNC(=O)c2ccccc2OC(F)F)n[nH]1` [Compound 63, 2-(Difluoromethoxy)-N-((5-(5-hydroxy-2-methoxyphenyl)-1H-1,2,4-triazol-3-yl)methyl) benzamide] it was 1000 to 10000 nM.
In the assay on MIA PaCa-2 cells (MIA PaCa-2, 72 h), `COc1ccccc1-c1nc(CNC(=O)c2cccc3c2OC(F)(F)O3)n[nH]1` [Compound 132] gave an IC50 of under 1000 nM.
Compound `O=C(NCc1n[nH]c(-c2cc(F)ccc2O)n1)c1ccccc1OC(F)(F)F` [Compound 130] displayed an IC50 with MIA PaCa-2 cells (MIA PaCa-2, 72 h) of under 1000 nM.
